{"source": "patent US20170252312A1", "about": "“PREPARATIONS FOR TREATMENT AND PREVENTION OF ALCOHOL FLUSHING AND ALCOHOL-INDUCED HYPERSENSITIVITY REACTIONS” (BIOHIT OYJ, priority 2014, published 2017)", "origin": "cited, not measured here", "key": {"ADH enzyme": {"tested_on": "ADH enzyme", "settings": "ALDH2-deficient individuals"}, "[1]": {"tested_on": "microbial acetaldehyde formation from ethanol"}}, "data": [{"molecule": "Cc1cn[nH]c1", "note": "[4-MP, 4-methylpyrazole]", "values": [{"measurement": "alcohol-induced increase in salivary acetaldehyde levels", "setting": "ADH enzyme", "result": "markedly decrease"}, {"measurement": "flushing response to alcohol", "setting": "ADH enzyme", "result": "suppressed also significantly"}, {"measurement": "increase in heart rate and skin temperature and drop in diastolic blood pressure", "setting": "ADH enzyme; 4-MP used before ethanol intake", "result": "disappeared"}]}, {"molecule": "OC[C@@H](O)[C@H](O)[C@@H](O)CO", "note": "[xylitol]", "values": [{"measurement": "inhibition of microbial acetaldehyde formation from ethanol", "setting": "[1]", "result": "inhibit microbial acetaldehyde formation from ethanol"}]}, {"molecule": "CC=O", "note": "[Acetaldehyde]", "values": [{"measurement": "histamine release", "setting": "human mast cells", "result": "enhance histamine release"}, {"measurement": "histamine release", "setting": "rat mast cells", "result": "enhance histamine release"}]}]}
